According to PMC8122671, “New Succinimides with Potent Anticancer Activity: Synthesis, Activation of Stress Signaling Pathways and Characterization of Apoptosis in Leukemia and Cervical Cancer Cells” (International Journal of Molecular Sciences, 2021):

Legend:
[1] = Lipophilicity (logkw) by reversed-phase chromatography (RP-HPLC); type: physicochemical; details: for logkw (Experimental): extrapolated to pure water; for logkw (Table S2): intercept of logk vs methanol fraction, n = 4
Source text: The main goal of the synthetic part was the synthesis of new derivatives of dicarboximides with decreased lipophilicity in comparison to the lead compounds, i.e., Ia–Ie and II. To reduce the lipophilicity of the new dicarboximides, a hydroxyalkyl chain connected with an aliphatic amine was introduced to the imides (Scheme 1). At the same time, the imide scaffold in derivatives from group 2 and 3 was the same as in lead compounds Ia–Ie and II, respectively (Figure 1). The structure of the imide was changed in derivatives 1b–1g. The lipophilicity of new derivatives was calculated using the Osiris Property Explorer program. For some compounds, lipophilicity was determined experimentally by a reversed-phase chromatography (detailed description is given in Materials and Methods and in the Supplementary Data, Table S2). Table 1 summarizes the calculated (clogP) and experimental (logkw) parameters of the lipophilicity of new derivatives.
The reversed-phase high-performance liquid chromatography (RP-HPLC) analysis was performed on a Merck–Hitachi LaChrom Elite System (Merck, Darmstadt, Germany) with diode array detector L-2455, thermostat L-2300, pump L-2130, and autosampler L-2200 and with the Waters XTerra MS RP-18 (3.5 μm, 150 × 4.6 mm) chromatographic column (Waters, Milford, MA, USA) as the stationary phase. The mobile phase consisted of methanol, water, and 0.1% (v/v) formic acid and was degassed by the use of the built-in membrane degasser. The methanol gradient grade for HPLC was purchased from Merck (Merck, Darmstadt, Germany) and formic acid from Polish Reagents (Polish Reagents, Gliwice, Poland); double-distilled water was used. Then, 5 μL of methanolic solutions (0.1%; m/v) of selected samples were applied to the chromatographic column by the use of an autosampler Hitachi L-2200 (LaChrom Elite, Hitachi-Merck, Darmstadt, Germany). The analysis was performed with the flow rate of 0.7 mL min^−1 in isocratic mode using various concentrations of organic modifier (methanol) in binary polar mobile phases; percentages of methanol in water were 45–70% (%, v/v) and changed by 5% per step. Chromatograms were detected at 254 nm and the temperature of the column was 25 °C. All experiments were repeated in triplicate, and the final results were taken to be the arithmetic means. Dead time was measured by the use of uracil (Calbiochem. Merck, Darmstadt, Germany). Statistical and regression analyses were performed using Statistica (ver. 13.3 for Windows). The chromatographic lipophilicity parameters ( logkW ) for selected samples were obtained by the extrapolation of the retention parameter logk to pure water, according to Equation (1):(1) logk=logkw−S·ϕ; where logkW is the value of the retention factor of a substance in pure water, S is the slope of the regression curve, and ϕ is the concentration of the organic modifier. The values of logk were calculated based on the raw HPLC data using the formula (2):(2) logk=logtR−t0/t0; where tR is the retention time and t0 is the dead retention time (determined for uracil).
The chromatographic lipophilicity parameters (logkௐ ) for selected samples were ob‐ tained by the extrapolation of the retention parame te r logk to pure water, according to […]
where logkௐ is the value of the retention factor of a substance in pure water, S is the slope of the regression curve, and φ is the concentration of the organic modifier. The values of logk were ca lcula ted based on the raw HPLC data using the formula: […]
logk ൌ log ሺ௧ೃ ି ௧బ௧బ ሻ (2) where tோ is the retention time and t଴ is the dead retention time (determined for ura‐ cil). The goodness of fit of the equation (1) to the experimental data was classified accord‐ ing to Jaffe (Jaffe, H. H. A Reexamination of the Hammet Equation. Chem. Rev. 1953, 53, In our RP‐HPLC experiments, the goodness of fit of the equation to the experi‐ mental data are excellent in most ca ses (r > 0.99). The F statistic val ues are, in all cases, […]

[2] = test system: HeLa (human cervix carcinoma) cells; assay: MTT cytotoxicity assay, HeLa; type: cell-based; details: 48 h incubation, average (SD) of three experiments, read-out: IC50 HeLa

Structure (SMILES) | logkw (Experimental) [1] | logkw (Table S2) [1] | IC50 [2] [µM]
CCC12C(=O)C(CC)(C(c3ccccc3)=C1c1ccccc1)C1C(=O)N(CC(O)CNC(C)(C)C)C(=O)C12 (stereo not drawn) [2c, 4-[3-(tert-butylamino)-2-hydroxypropyl]-1,7-diethyl-8,9-diphenyl-4-azatricyclo [5.2.1.0^2,6]dec-8-ene-3,5,10-trione] | 4.74 | 4.7442 | 3.2
CCN(CC)CC(O)CN1C(=O)C2C(C1=O)C1(CC)C(=O)C2(CC)C(c2ccccc2)=C1c1ccccc1 (stereo not drawn) [2d, 4-[3-(diethylamino)-2-hydroxypropyl]-1,7-diethyl-8,9-diphenyl-4-azatricyclo [5.2.1.0^2,6]dec-8-ene-3,5,10-trione] | 5.10 | 5.1042 | 18
CC(C)(C)NCC(O)CN1C(=O)C2C(C1=O)C1(c3ccccc3)CC2(c2ccccc2)C(c2ccccc2)=C1c1ccccc1 (stereo not drawn) [3c, 4-[3-(tert-butylamino)-2-hydroxypropyl]-1,7,8,9-tetraphenyl-4-azatricyclo[5.2.1.0^2,6]dec-8-ene-3,5-dione] | 6.06 | 6.0611 | 2
CCN(CC)CC(O)CN1C(=O)C2C(C1=O)C1(c3ccccc3)CC2(c2ccccc2)C(c2ccccc2)=C1c1ccccc1 (stereo not drawn) [3d, 4-[3-(diethylamino)-2-hydroxypropyl]-1,7,8,9-tetraphenyl-4-azatricyclo[5.2.1.0^2,6]dec-8-ene-3,5-dione] | 6.28 | 6.2845 | 1.9
